# Measured values as given in patent publication US20090281036A1, “FUSION PEPTIDE FOR INHIBITING INTERACTION OF NEURONAL NMDA RECEPTOR (NMDAR) AND NMDAR INTERACTING PROTEINS” (priority 2006, published 2009).
# Entries after “also recorded” stand apart in the source; their conditions may differ. Where no end group is shown, it is not given here. [ ]: non-standard residue; d: D form.
# How the values were obtained:
# [1] = system: Rat cortical neurons; experiment: Duration of neuroprotection afforded by (Arg)8-NR2B9c in the face of excitotoxic insults (NMDA-induced cell death, pyknotic nuclei as % of total); type: cell-based
# Protocol: Rat cortical neurons, taken from E21 rats, were cultured for 7-9 days in vitro in Neurobasal-A medium+B-27 supplement (both Invitrogen), 1 mM glutamine, +50 units/ml penicillin, 50 μg/ml streptomycin • 1. At varying times prior to peptide exposure, neurons were removed from Neurobasal-A based culture medium, and placed into TM (see above) with the inclusion of Insulin-transferrin-selenite supplement (Sigma). All subsequent steps took place in TM (see above). • 2. Neurons were then exposed to inventive fusion peptides at 10 μM for 1 hr. (particularly (Arg)8-NR2B9c peptides in D-form (D-TAT-D-NR2B9c, sequence vdseisslk-rrrrrrrr (SEQ ID NO: 35)) and also L-form (SEQ ID NO: 34)) • 3. After 1 hr neurons were washed once in TM to remove peptide. • 4. After a varying period of time, neurons were exposed to NMDA for 1 hr, after which neurons are placed in TM for 24 h. • 5. Neurons were fixed (3% paraformaldehyde) and stained (DAPI 4′,6-Diamidino-2-phenylindole). The number of pyknotic nuclei as a % of total was counted. Experiments were performed in triplicate.
# [2] = system: Rat cortical neurons; experiment: Duration of neuroprotection afforded by TAT-NR2B9c in the face of excitotoxic insults (NMDA-induced cell death, pyknotic nuclei as % of total); type: cell-based; conditions: for significant protection (duration after washout): peptide 10 μM for 1 hr, then washout
# Protocol: Rat cortical neurons, taken from E21 rats, were cultured for 7-9 days in vitro in Neurobasal-A medium+B-27 supplement (both invitrogen), 1 mM glutamine, +50 units/ml penicillin, 50 μg/ml streptomycin. • 1. At varying times prior to compound exposure, neurons were removed from Neurobasal-A based culture medium, and placed into “transfection medium” (TM; Bading et al. (1993), Science 260, 181-186): 10% (Minimum Essential Medium, invitrogen (21090022), containing Earles salt, but no L-glutamine), 90% Salt-Glucose-Glycine (SGG) medium SGG: 114 mM NaCl, 0.219% NaHCO3, 5.292 mM KCl, 1 mM MgCl2, 2 mM CaCl2, 10 mM HEPES, 1 mM Glycine, 30 mM Glucose, 0.5 mM sodium pyruvate, 0.1% Phenol Red, insulintransferrin-selenite supplement (Sigma, 7.5 μg insulin/ml; 7.5 μg transferrin/ml and 7.5 ng sodium selenite/ml); final osmolarity 325 mosm/l). All subsequent steps took place in TM. • 2. Neurons were then exposed to inventive fusion peptides at 10 μM for 1 hr. (particularly TAT-NR2B9c peptides in L-form (L-TAT-L-NR2B9c sequence YGRKKRRQRRR-KLSSIESDV (SEQ ID NO: 32), identical to US 20030050243) and their D-form (D-TAT-D-NR2B9c, sequence vdseisslk-rrrqrrkkrgyin (SEQ ID NO: 33))) • 3. After 1 hr neurons were washed once in TM to remove peptide. • 4. After a varying period of time, neurons were exposed to NMDA at either 20 or 40 μM for 1 hr, after which neurons are placed in TM for 24 h. • 5. Neurons were fixed (3% paraformaldehyde) and stained (DAPI, 4′,6-Diamidino-2-phenylindole). Number of pyknotic nuclei as a % of total is counted. Experiments were performed in triplicate.
Substance,"efficacy (lowered cell death rate %) versus comparative compound L-(Arg)8-L-NR2B9c ([1]; 20 μM NMDA, FIG. 3)","superior neuroprotection after washout of the peptide (duration) ([1]; 20 μM NMDA, peptide 10 μM for 1 hr, then washout, FIG. 3)","efficacy (lowered cell death rate %) versus comparative compound L-(Arg)8-L-NR2B9c ([1]; 40 μM NMDA, up to the 8 hr time point, FIG. 4)","performance compared with D-TAT-D-NR2B9c ([1]; overall, 20 and 40 μM NMDA)","efficacy (lowered cell death rate %) versus comparative compound L-TAT-L-NR2B9c ([2]; 20 μM NMDA, FIG. 1)","gap between peptide incubation and NMDA addition at which the positive effect shows ([2]; 20 μM NMDA, FIG. 1)","efficacy (lowered cell death rate %) versus comparative compound L-TAT-L-NR2B9c ([2]; 40 μM NMDA, FIG. 2)","time window in which the remarkable positive effect becomes apparent ([2]; 40 μM NMDA, FIG. 2)","significant protection (duration after washout) ([2]; 40 μM NMDA, FIG. 2)"
"vdseisslk-rrrrrrrr ([dV][dD][dS][dE][dI][dS][dS][dL][dK][dR][dR][dR][dR][dR][dR][dR][dR]) [D-(Arg)8-D-NR2B9c, inventive fusion peptide of D-(Arg)8 transporter and D-NR2B9c]","at least equal, but predominantly significantly increased efficacy",up to 8 hours,"at least equal, but predominantly significant increased efficacies; also recorded: equal to better protective effects","performs similar to D-TAT-D-NR2B9c (SEQ ID NO: 33)), albeit with a shorter duration of neuroprotective activity",,,,,
"vdseisslk-rrrqrrkkrgy ([dV][dD][dS][dE][dI][dS][dS][dL][dK][dR][dR][dR][dQ][dR][dR][dK][dK][dR]G[dY]-NH2; N-terminus assumed; SMILES CC[C@@H](C)[C@@H](NC(=O)[C@@H](CCC(=O)O)NC(=O)[C@@H](CO)NC(=O)[C@@H](CC(=O)O)NC(=O)[C@H](N)C(C)C)C(=O)N[C@H](CO)C(=O)N[C@H](CO)C(=O)N[C@H](CC(C)C)C(=O)N[C@H](CCCCN)C(=O)N[C@H](CCCNC(=N)N)C(=O)N[C@H](CCCNC(=N)N)C(=O)N[C@H](CCCNC(=N)N)C(=O)N[C@H](CCC(N)=O)C(=O)N[C@H](CCCNC(=N)N)C(=O)N[C@H](CCCNC(=N)N)C(=O)N[C@H](CCCCN)C(=O)N[C@H](CCCCN)C(=O)N[C@H](CCCNC(=N)N)C(=O)NCC(=O)N[C@H](Cc1ccc(O)cc1)C(N)=O) [D-TAT-D-NR2B9c, inventive fusion peptide of D-TAT transporter and D-NR2B9c]",,,,,"at least equal, but predominantly significantly increased efficacy",≥ 8 h,"at least equal, but predominantly significantly increased efficacy",less than 24 h,up to 24 hours
"YGRKKRRQRRRKLSSIESDV (Description of sequence L-TAT-L-NR2B9c sequence) [comparative compound, identical to US 20030050243, reference compound]",,,,,,,,,1 h
